ChEMBL document CHEMBL4507325 (2021)

Target: Branched-chain-amino-acid aminotransferase, mitochondrial (Homo sapiens, UniProt O15382)
Sequence (O15382 whole entry): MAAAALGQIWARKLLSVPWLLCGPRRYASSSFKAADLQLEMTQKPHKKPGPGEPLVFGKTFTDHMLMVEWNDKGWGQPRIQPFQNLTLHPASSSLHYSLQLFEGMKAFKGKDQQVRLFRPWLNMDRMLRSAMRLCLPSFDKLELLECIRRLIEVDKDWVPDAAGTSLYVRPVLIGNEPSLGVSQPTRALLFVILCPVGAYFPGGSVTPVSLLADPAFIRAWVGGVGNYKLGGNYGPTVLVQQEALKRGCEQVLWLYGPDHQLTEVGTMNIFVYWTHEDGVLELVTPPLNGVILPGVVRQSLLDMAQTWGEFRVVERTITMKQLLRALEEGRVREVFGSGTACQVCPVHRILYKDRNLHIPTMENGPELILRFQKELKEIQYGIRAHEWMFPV

For `Cc1ccccc1Oc1cc(-n2c(=O)cc(C(F)(F)F)[nH]c2=O)c2ccccc2c1` [BAY-771], the IC50 was 10.8 µM (not active).
